The values below come from US4496521A, “Insulin-potentiating peptides” (The Whittier Institute for Diabetes and Endocrinology, priority 1983, dated 1985).

The test system of test [1] is adipose tissue from hypophysectomized rats. The test is described as follows: Stimulation of glucose oxidation in adipose tissue from hypophysectomized rats. Conditions: for ability to stimulate glucose oxidation in adipose tissue: native peptides at concentrations up to 50 μg per ml. It is filed as cell-based. The source says: Biochem., 11, 559-570. The detailed extraction procedure actually employed is set forth in "Human Growth Hormone Peptide 1-43: Isolation from Pituitary Glands", Singh et al., J. Protein Chem., (in press) (1983).

Test [2] relates to VY-F-1 hybrid yellow mice. The test is described as follows: (U-14C)-D-glucose incorporation in tissues of mice after a glucose load. It is filed as in vivo. How it is done: containing an appropriate amount of (U-^14 C)-D-glucose (Amersham Radiochemicals, Arlington Heights, IN) so that about 8×10^5 dpm of radiolabeled glucose was given per mouse. Sixty minutes after administration of the mixture, the mice were sacrificed and fragments of liver, diaphragm, and adipose tissue were quickly excised and weighed in a torsion balance. The pieces were placed in vials and digested for 2 hr at 55° C. in 1 molar KOH. After cooling to room temperature, the scintillation liquid was added to the vials. Radioactivity was measured the next day, and an average efficiency of 60% was measured using the internal standard method. Samples of blood were collected at the desired time by intraorbital puncture. Glucose content in the chilled plasma was determined in triplicates by the glucose oxidase method. Blood concentration of radioactive glucose was determined using 20 μl of plasma. Glucose incorporation (GI), expressed in arbitrary units, was calculated by the following equation for the various tissues: [formula] The specific activity of plasma glucose is defined as disintegrations per minute of radioactivity×1000 per 100 μl plasma, divided by milligrams of glucose per 100 ml. of plasma. Statistical significance was determined by 1-way analysis of variance and Duncan's multiple range t-test. Yellow (A^vy /A) and agouti (A/a) virgin (BALB/c×VY)F-1 hybrid female mice were produced by mating BALB/[…] females by […] males. The mice were housed 3 per 7"×5"×11" polypropylene cage with pine shavings as bedding and fed Wayne Lab Blox (Allied Mills, Inc.) 10% fat diet and tap water ad libitum. Ambient temperature was about 22±1° C., and a 12 hr light cycle was maintained. […] Whereas the effect upon the incorporation of glucose in the diaphragm was of lesser magnitude, it is possible that the values represent the maximal rate of glucose utilization by this muscle. […] Further testing was carried out on other mice to show the effect of insulin on the utilization of glucose in similar mice. Because the animals were obese and a maximal effect was desired, a large amount of hormone (50 milliunits per mouse) were used.

A short description of test [3]: Plasma glucose in mice given a glucose load (glucose oxidase method). It is filed as in vivo. To be noted: for Plasma Glucose 0 min: sample at 0 min; for Plasma Glucose 60 min: sample at 60 min. How it is done: Injections were made intraperitoneally 30 min before administration of a glucose load of 2 mg/g of body weight containing an appropriate amount of (U-^14 C)-D-glucose (Amersham Radiochemicals, Arlington Heights, IN) so that about 8×10^5 dpm of radiolabeled glucose was given per mouse. Sixty minutes after administration of the mixture, the mice were sacrificed and fragments of liver, diaphragm, and adipose tissue were quickly excised and weighed in a torsion balance. The pieces were placed in vials and digested for 2 hr at 55° C. in 1 molar KOH. After cooling to room temperature, the scintillation liquid was added to the vials. Radioactivity was measured the next day, and an average efficiency of 60% was measured using the internal standard method. Samples of blood were collected at the desired time by intraorbital puncture. Glucose content in the chilled plasma was determined in triplicates by the glucose oxidase method. Blood concentration of radioactive glucose was determined using 20 μl of plasma. Glucose incorporation (GI), expressed in arbitrary units, was calculated by the following equation for the various tissues: [formula]
Further testing was carried out on other mice to show the effect of insulin on the utilization of glucose in similar mice. Because the animals were obese and a maximal effect was desired, a large amount of hormone (50 milliunits per mouse) were used.

The conditions of test [4]: mice; Frigeri et al., Endocrine Society Abstract #88; cited from earlier work.
Test [5] in a line: Hypoglycemic activity of insulin when the peptide is given together with insulin. Type of test: in vivo.
[6] abbreviates: Group B: insulin 50 mU per mouse 30 min before glucose.
Setting [7] is: Group B: insulin 50 mU per mouse 30 min before glucose, listed as insulin.
Setting [8] is: Group C: insulin 50 mU per mouse 5 min before glucose load.
[9] abbreviates: Group C: insulin 50 mU per mouse 5 min before glucose load, listed as insulin.
Where [10] appears, read: Table I, increase versus saline, 50 μg, 30 min before glucose.
The mark [11] stands for this setting: Table IA, increase versus saline, 50 μg, 30 min before glucose.

Regarding “GH: purified growth hormone, used as active comparator in the glucose oxidation assay”, the “level at which glucose oxidation stimulating activity is shown” value in test [1] (purified GH) came out at 0.2 ng per ml.
Consider “Insulin: hormone which controls storage and oxidation of sugar; given at 50 mU per mouse”, for which the “Glucose Incorporation Adipose Tissue” value in test [2] (setting [6]) is 9.1 ± 0.82 arbitrary units/g of tissue; in test [2] (setting [7]) it was “rose”; in test [2] (setting [8]) it was 9.0 ± 1.05 arbitrary units/g of tissue; in test [2] (setting [9]), “rose to values similar to those observed in the -30 minute treated group”. Besides, the “Glucose Incorporation Diaphragm” value in test [2] (setting [6]) is listed as 54.4 ± 2.8 arbitrary units/g of tissue; in test [2] (setting [7]), “rose”; in test [2] (setting [8]) it was 52.2 ± 2.4 arbitrary units/g of tissue; in test [2] (setting [9]) it was “rose to values similar to those observed in the -30 minute treated group”. Besides, the “Glucose Incorporation Liver” value in test [2] (setting [6]) is reported as 36.6 ± 2.6 arbitrary units/g of tissue; in test [2] (setting [7]), “fell sharply below control levels”; in test [2] (setting [8]), 64.4 ± 9.5 arbitrary units/g of tissue; in test [2] (setting [9]) it was “remained unchanged”. The “Plasma Glucose 0 min” value in test [3] (setting [6]) is 70 ± 8.3 mg/dL; in test [3] (setting [7]), “dropped sharply”; in test [3] (setting [8]) it was 151. ± 9.5 mg/dl. The “Plasma Glucose 60 min” value in test [3] (setting [6]) was found to be 182 ± 11.8 mg/dL; in test [3] (setting [8]), 270 ± 31 mg/dL. Moreover, the “Plasma Glucose -30 min” value in test [3] (Group B: insulin 50 mU per mouse 30 min before glucose, sample at -30 min) turned out to be 122 ± 2.8 mg/dL. Moreover, the “Plasma Glucose -5 min” value in test [3] (Group C: insulin 50 mU per mouse 5 min before glucose load, sample at -5 min) worked out at 129 ± 6.5 mg/dL.
On to “fragment corresponding to amino acid residues 32-46: fragment corresponding to amino acid residues 32-46 of human GH (literature) (EEAYIPKEQKYSFLQ; UniProt P01241 58-72, looked up, fragment)”, for which the glucose tolerance entry in test [4] was “could improve the glucose tolerance”.
Turning to `CC[C@H](C)[C@H](NC(=O)[C@H](Cc1ccc(O)cc1)NC(=O)[C@H](C)NC(=O)[C@H](CCC(=O)O)NC(=O)[C@H](CCC(=O)O)NC(=O)[C@H](Cc1ccccc1)NC(=O)[C@H](CCC(=O)O)NC(=O)[C@H](CCC(N)=O)NC(=O)[C@H](Cc1ccc(O)cc1)NC(=O)[C@@H](NC(=O)[C@H](CC(=O)O)NC(=O)[C@H](Cc1ccccc1)NC(=O)[C@H](C)NC(=O)[C@H](CC(C)C)NC(=O)[C@H](CCC(N)=O)NC(=O)[C@H](Cc1c[nH]cn1)NC(=O)[C@H](CC(C)C)NC(=O)[C@H](CCCNC(=N)N)NC(=O)[C@H](Cc1c[nH]cn1)NC(=O)[C@H](C)NC(=O)[C@H](CCCNC(=N)N)NC(=O)[C@H](CC(C)C)NC(=O)[C@H](CCSC)NC(=O)[C@H](C)NC(=O)[C@H](CC(N)=O)NC(=O)[C@H](CC(=O)O)NC(=O)[C@H](Cc1ccccc1)NC(=O)[C@H](CC(C)C)NC(=O)[C@H](CCCNC(=N)N)NC(=O)[C@H](CO)NC(=O)[C@H](CC(C)C)NC(=O)[C@@H]1CCCN1C(=O)[C@@H](NC(=O)[C@@H](NC(=O)[C@@H]1CCCN1C(=O)[C@@H](N)Cc1ccccc1)[C@@H](C)O)[C@@H](C)CC)[C@@H](C)O)C(=O)N1CCC[C@H]1C(=O)N[C@@H](CCCCN)C(=O)N[C@@H](CCC(=O)O)C(=O)N[C@@H](CCC(N)=O)C(=O)N[C@@H](CCCCN)C(=O)N[C@@H](Cc1ccc(O)cc1)C(=O)N[C@@H](CO)C(=O)O` [hGH(1-43), H--Phe--Pro--Thr--Ile--Pro--Leu--Ser--Arg--Leu--Phe--Asp--Asn--Ala--Met--Leu--Arg--Ala--His--Arg--Leu--His--Gln--Leu--Ala--Phe--Asp--Thr--Tyr--Gln--Glu--Phe--Glu--Glu--Ala--Tyr--Ile--Pro--Lys--Glu--Gln--Lys--Tyr--Ser--OH], the “Glucose Incorporation Diaphragm” value in test [2] (Table I, 50 μg intraperitoneally 30 min before glucose load, Mean ± SEM) is listed as 52.0 arbitrary units/g of tissue. Besides, the “Glucose Incorporation Liver” value in test [2] (Table I, 50 μg intraperitoneally 30 min before glucose load, tissue 60 min after glucose, Mean ± SEM) was 135.9 arbitrary units/g of tissue. In test [2] (setting [10]), the “Glucose Incorporation Adipose Tissue (%)” value was 63% and the “Glucose Incorporation Diaphragm (%)” value was 17%. Moreover, the “Glucose Incorporation Liver” value in test [2] (Table IA, 50 μg 30 min before glucose load, Mean ± SEM) is 115.2 ± 16 arbitrary units/g of tissue. In addition, the “Glucose Incorporation Liver (%)” value in test [2] (setting [11]) is reported as 35%. Further, the “change of plasma glucose after administration of the peptide” value in test [3] (after administration of hGH(1-43)) was “no significant decrease”. For the same molecule, the “stimulation of in vitro glucose oxidation in adipose tissue” value in test [1] (in vitro) is “does not stimulate”. In test [1], the “ability to stimulate glucose oxidation in adipose tissue” value is “inactive”. In addition, the “hypoglycemic activity of insulin” value in test [5] was “an increase of its hypoglycemic activity is observed”.
On to “H-AHRLHQLAFDTYQEFEEAYIPKEQKYS-OH [hGH(17-43), H--Ala--His--Arg--Leu--His--Gln--Leu--Ala--Phe--Asp--Thr--Tyr--Gln--Glu--Phe--Glu--Glu--Ala--Tyr--Ile--Pro--Lys--Glu--Gln--Lys--Tyr--Ser--OH]”, for which, in test [2] (setting [11]), the “Glucose Incorporation Liver (%)” value was about 35%. Further, in test [1], the “ability to stimulate glucose oxidation in adipose tissue” value was “inactive”.
